For test [1], the system named is human PBMCs. The experiment in a line: Human PBMC cytokine response assay (IFN-γ and IFN-α in cell-free medium by ELISA), with or without cPLGA.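 On IFN-α (pg/ml) mean: 20 µg/mL compound for 24 hours.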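 On IFN-γ (pg/ml) mean: 20 µg/mL compound for 24 hours.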 Particulars: for IFN-γ (pg/ml) 28065: donor 28065 (high background), 1000 = outside assay limits; for IFN-γ (pg/ml) 28065 / IFN-α (pg/ml) 28065 / IFN-α (pg/ml) 28066 / IFN-γ (pg/ml) 28066 / IFN-α (pg/ml) 28067 / IFN-γ (pg/ml) 28067 / IFN-α (pg/ml) 28068 / IFN-γ (pg/ml) 28068 / IFN-α (pg/ml) mean / IFN-γ (pg/ml) mean: 20 ug/ml, + PLGA = premixed with 100 μg/ml cPLGA; for IFN-γ (pg/ml) 28065 / IFN-α (pg/ml) 28065 / IFN-α (pg/ml) 28066 / IFN-γ (pg/ml) 28066 / IFN-α (pg/ml) 28067 / IFN-γ (pg/ml) 28067 / IFN-α (pg/ml) 28068 / IFN-γ (pg/ml) 28068 / IFN-α (pg/ml) mean / IFN-γ (pg/ml) mean / IFN-α induction (FIG. 10), in words: 24 h; for IFN-α (pg/ml) 28065: donor 28065; for IFN-α (pg/ml) 28066 / IFN-γ (pg/ml) 28066: donor 28066; for IFN-α (pg/ml) 28067 / IFN-γ (pg/ml) 28067: donor 28067; for IFN-α (pg/ml) 28068 / IFN-γ (pg/ml) 28068: donor 28068; for IFN-α (pg/ml) mean / IFN-γ (pg/ml) mean: mean of donors 28065-28068; for IFN-α induction (FIG. 10), in words: PBMCs from 8 donors, 20 μg/ml. The format is cell-based.

The test system of test [2] is CD19+ B cells. The experiment in a line: Human B cell proliferation assay (3H-thymidine incorporation). Particulars: for cpm1 / cpm2 / cpm3 / mean cpm / mean of both: B cells, 2 μg/ml, Experiment B; for mean of both: mean of donors 121 and 194; for B cell proliferation (FIG. 11), in words: purified human B cells, 5 μg/ml, 96 h.
Where [3] appears, read: Table 24, mean of donors 28234-28237.

With “5′-ACGTTCG-3′-HEG-5′-ACGTTCG-3′-HEG-5′-AGATGAT-3′ [Compound C-24]”, in test [1] (Table 10, donor 28042), the IFN-α came out at 0 pg/mL and the IFN-γ worked out at 148 pg/mL. In test [1] (Table 10, donor 28043), this substance showed an IFN-α of 0 pg/mL and an IFN-γ of 156 pg/mL. In test [1] (Table 10, donor 28044), this substance gave an IFN-α of 8 pg/mL and an IFN-γ of 312 pg/mL. In addition, in test [1] (Table 10, donor 28045), the IFN-α turned out to be 0 pg/mL and the IFN-γ was found to be 26 pg/mL. In test [1] (Table 10, mean of donors), this substance gave an IFN-α mean of 2 pg/mL and an IFN-γ mean of 161 pg/mL. For the same substance, in test [1], the “IFN-γ (pg/ml) 28065” value is 337 pg/mL, the “IFN-α (pg/ml) 28065” value was 28 pg/mL, the “IFN-α (pg/ml) 28066” value turned out to be 0 pg/mL and the “IFN-γ (pg/ml) 28066” value stood at 2 pg/mL. Further, in test [1], the “IFN-α (pg/ml) 28067” value is 8 pg/mL, the “IFN-γ (pg/ml) 28067” value was determined as 4 pg/mL, the “IFN-α (pg/ml) 28068” value stood at 67 pg/mL and the “IFN-γ (pg/ml) 28068” value worked out at 116 pg/mL. Moreover, in test [1], the “IFN-α (pg/ml) mean” value came out at 26 pg/mL and the “IFN-γ (pg/ml) mean” value was 115 pg/mL. In test [2] (donor 121), this substance came in with a cpm1 of 8206 cpm, a cpm2 of 6789 cpm and a cpm3 of 2799 cpm. Besides, the mean cpm in test [2] (donor 121 mean) turned out to be 5931 cpm. Moreover, in test [2] (donor 194), the cpm1 is 3979 cpm, the cpm2 stood at 3407 cpm and the cpm3 stood at 3468 cpm. The substance further gave a mean cpm in test [2] (donor 194 mean) of 3618 cpm. The substance further yielded a mean of both in test [2] of 4775 cpm.
As for “(5′-TCGATCG-3′-HEG)2-glycerol-HEG-5′-TCGATCG-3′ [Compound C-145]”, in test [1], the “IFN-α induction (FIG. 10), in words” value is on record as “induce high levels of IFN-α”. Further, the “B cell proliferation (FIG. 11), in words” value in test [2] is “induce very little B cell proliferation”.
As for “5′-TCGTCG-3′-C4-5′-ACGTTCG-3′-C4-5′-AGATGAT-3′ [Compound C-17]”, in test [1], the “IFN-γ (pg/ml) 28065” value was 1000 pg/mL, the “IFN-α (pg/ml) 28065” value was found to be 21 pg/mL, the “IFN-α (pg/ml) 28066” value was found to be 0 pg/mL and the “IFN-γ (pg/ml) 28066” value worked out at 6 pg/mL. In test [1], the “IFN-α (pg/ml) 28067” value worked out at 22 pg/mL, the “IFN-γ (pg/ml) 28067” value was 32 pg/mL, the “IFN-α (pg/ml) 28068” value was 95 pg/mL and the “IFN-γ (pg/ml) 28068” value turned out to be 459 pg/mL. In test [1], the “IFN-α (pg/ml) mean” value amounted to 34 pg/mL and the “IFN-γ (pg/ml) mean” value is 374 pg/mL. Also, in test [2] (donor 121), the cpm1 stood at 27975 cpm, the cpm2 was 30426 cpm and the cpm3 is on record as 9895 cpm. In addition, the mean cpm in test [2] (donor 121 mean) is reported as 22765 cpm. For the same substance, in test [2] (donor 194), the cpm1 amounted to 17467 cpm, the cpm2 was determined as 14890 cpm and the cpm3 came to 10518 cpm. This substance had a mean cpm in test [2] (donor 194 mean) of 14292 cpm. Moreover, the mean of both in test [2] is listed as 18529 cpm.
As to “5′-TCGTCG-3′-HEG-5′-TCGTCG-3′-HEG-5′-TCGTCG-3′ [Compound C-22]”, the IFN-α in test [1] (Table 9, donor 28089) amounted to 0 pg/mL; in test [1] (Table 9, donor 28090) it was 46 pg/mL; in test [1] (Table 9, donor 28098), 97 pg/mL; in test [1] (Table 9, donor 28099), 247 pg/mL; in test [1] (Table 10, donor 28042), 12 pg/mL; in test [1] (Table 10, donor 28043), 18 pg/mL. The IFN-α in test [1] (Table 10, donor 28044) is 67 pg/mL; in test [1] (Table 10, donor 28045), 30 pg/mL. The IFN-γ in test [1] (Table 9, donor 28089) came out at 31 pg/mL; in test [1] (Table 9, donor 28090), 15 pg/mL; in test [1] (Table 9, donor 28098), 110 pg/mL; in test [1] (Table 9, donor 28099), 91 pg/mL; in test [1] (Table 10, donor 28042) it was 206 pg/mL; in test [1] (Table 10, donor 28043), 343 pg/mL. In addition, the IFN-γ in test [1] (Table 10, donor 28044) was 736 pg/mL; in test [1] (Table 10, donor 28045), 40 pg/mL. Further, the IFN-α mean in test [1] (Table 9, mean of donors) came out at 97 pg/mL; in test [1] (Table 10, mean of donors) it was 32 pg/mL. Besides, the IFN-γ mean in test [1] (Table 9, mean of donors) stood at 62 pg/mL; in test [1] (Table 10, mean of donors), 331 pg/mL. For the same substance, the “activity when formulated with cPLGA, in words” value in test [1] (formulated with cPLGA) was “induced considerable IFN-γ and IFN-α when formulated with cPLGA”. For the same substance, the “IFN-γ induction, in words” value in test [1] (used alone) was “induce IFN-γ when used alone”. Also, the cpm1 in test [2] (donor 121) is on record as 17147 cpm; in test [2] (donor 194) it was 6472 cpm. The figures for the cpm2 in test [2] (donor 121) and in test [2] (donor 194) were 14014 cpm and 5540 cpm, respectively. In addition, the figures for the cpm3 in test [2] (donor 121) and in test [2] (donor 194) were 6844 cpm and 3894 cpm, respectively. For the same substance, the mean cpm in test [2] (donor 121 mean) turned out to be 12668 cpm; in test [2] (donor 194 mean) it was 5302 cpm. In addition, the mean of both in test [2] was 8985 cpm.
For “(5′-TCGTCGA-3′-C3)2-glycerol-C3-5′-TCGTCGA-3′ [Compound C-104]”, the “IFN-α induction (FIG. 10), in words” value in test [1] is “induces no measurable IFN-α”. The IFN-α came out at 16 pg/mL in test [1] (Table 24, donor 28234); 29 pg/mL in test [1] (Table 24, donor 28235); 16 pg/mL in test [1] (Table 24, donor 28236); 16 pg/mL in test [1] (Table 24, donor 28237). In addition, the IFN-γ came out at 14 pg/mL in test [1] (Table 24, donor 28234); 4 pg/mL in test [1] (Table 24, donor 28235); 87 pg/mL in test [1] (Table 24, donor 28236); 125 pg/mL in test [1] (Table 24, donor 28237). In addition, in test [1] (setting [3]), the IFN-α mean was 19 pg/mL. This substance also returned an IFN-γ mean in test [1] (setting [3]) of 58 pg/mL. In test [1] (used alone), the “IFN-α induction, in words” value is “HEG (C-94)>TEG (C-103)>C3 (C-104)=no linker (C-28)”. In addition, the “B cell proliferation (FIG. 11), in words” value in test [2] is “stimulates B cells to proliferate”.
In the case of “5′-TCGTCG-3′-abasic-5′-ACGTTCG-3′-abasic-5′-AGATGAT-3′ [Compound C-20]”, in test [1], the “IFN-γ (pg/ml) 28065” value was determined as 354 pg/mL, the “IFN-α (pg/ml) 28065” value came to 21 pg/mL, the “IFN-α (pg/ml) 28066” value turned out to be 5 pg/mL and the “IFN-γ (pg/ml) 28066” value is 13 pg/mL. In test [1], the “IFN-α (pg/ml) 28067” value came out at 13 pg/mL, the “IFN-γ (pg/ml) 28067” value amounted to 16 pg/mL, the “IFN-α (pg/ml) 28068” value amounted to 64 pg/mL and the “IFN-γ (pg/ml) 28068” value was found to be 505 pg/mL. For the same substance, in test [1], the “IFN-α (pg/ml) mean” value was found to be 26 pg/mL and the “IFN-γ (pg/ml) mean” value came to 222 pg/mL. In test [2] (donor 121), this substance showed a cpm1 of 31276 cpm, a cpm2 of 30851 cpm and a cpm3 of 28532 cpm. The substance also came in with a mean cpm in test [2] (donor 121 mean) of 30220 cpm. Also, in test [2] (donor 194), the cpm1 came to 18082 cpm, the cpm2 is reported as 18705 cpm and the cpm3 was 17481 cpm. Besides, the mean cpm in test [2] (donor 194 mean) was found to be 18089 cpm. This substance also came in with a mean of both in test [2] of 24155 cpm.

The values above are taken from patent publication US9028845B2, “Chimeric immunomodulatory compounds and methods of using the same-IV” (Dynavax Technologies Corporation, priority 2001, dated 2015).
